Results taken from US8802597B2, “Herbicidal pyrimidines” (E I du Pont de Nemours and Company, priority 2003, dated 2014).
Where two headings read alike, the source gives them in different places.

Columns and labels:
Test in all cases: Test C pre/postemergence
Type in all cases: in vivo
[1] = system: Surinam grass (Brachiaria decumbens); conditions: Urochloa decumbens; for pest or weed control at 125 g/ha: 125 g ai/ha; for pest or weed control at 31 g/ha: 31 g ai/ha; for pest or weed control at 62 g/ha: 62 g ai/ha; for pest or weed control at 250 g/ha: 250 g ai/ha
Summary of the method: (§1)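 Greenhouse herbicide screen, visual readout. Compound in solvent/surfactant applied preemergence at planting or postemergence to 1- to 4-leaf plants; assessed at 12–14 days on a 0–100 control scale.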

[2] = system: bermudagrass (Cynodon dactylon); conditions: Cynodon dactylon; for pest or weed control at 31 g/ha: 31 g ai/ha; for pest or weed control at 62 g/ha: 62 g ai/ha; for pest or weed control at 125 g/ha: 125 g ai/ha; for pest or weed control at 125 g/ha / pest or weed control at 250 g/ha: scale 0 to 100; for pest or weed control at 250 g/ha: 250 g ai/ha
Summary of the method: as §1

[3] = system: common ragweed (Ambrosia elatior); conditions: Ambrosia artemisiifolia; for pest or weed control at 31 g/ha: 31 g ai/ha; for pest or weed control at 62 g/ha: 62 g ai/ha; for pest or weed control at 125 g/ha: 125 g ai/ha; for pest or weed control at 250 g/ha: 250 g ai/ha
Summary of the method: as §1

[4] = system: eastern black nightshade (Solanum ptycanthum); conditions: Solanum, pre-emergence, Preemergence, read-out: Plant response rating, Nightshade
Summary of the method: as §1

[5] = system: giant foxtail (Setaria faberii); conditions: Setaria faberi; for pest or weed control at 125 g/ha: 125 g ai/ha; for pest or weed control at 31 g/ha: 31 g ai/ha; for pest or weed control at 62 g/ha: 62 g ai/ha; for pest or weed control at 250 g/ha: 250 g ai/ha
Summary of the method: as §1

[6] = system: goosegrass (Eleusine indica); conditions: Eleusine indica; for pest or weed control at 31 g/ha: 31 g ai/ha; for pest or weed control at 62 g/ha: 62 g ai/ha; for pest or weed control at 125 g/ha: 125 g ai/ha; for pest or weed control at 250 g/ha: 250 g ai/ha
Summary of the method: as §1

[7] = system: lambsquarters (Chenopodium album); conditions: Chenopodium album, post-emergence, Postemergence
Summary of the method: as §1

[8] = post-emergence, Postemergence, scale 0 to 100 (0 no effect, 100 complete control), read-out: Surinam Grass plant response rating
[9] = pre-emergence, Preemergence, scale 0 to 100, 0 no effect, 100 complete control, read-out: Plant response rating, Surinam Grass
[10] = pre-emergence, Preemergence, scale 0 to 100, read-out: Plant response rating, Surinam Grass
[11] = post-emergence, Postemergence, read-out: Plant response rating, Bermudagrass
[12] = pre-emergence, Preemergence, scale 0 to 100, 0 no effect, 100 complete control, read-out: Plant response rating, Bermudagrass
[13] = pre-emergence, Preemergence, read-out: Plant response rating, Bermudagrass
[14] = post-emergence, Postemergence, scale 0 to 100 (0 no effect, 100 complete control), read-out: Ragweed plant response rating
[15] = pre-emergence, Preemergence, scale 0 to 100, 0 no effect, 100 complete control, read-out: Plant response rating, Ragweed
[16] = pre-emergence, Preemergence, scale 0 to 100, read-out: Plant response rating, Ragweed
[17] = post-emergence, Postemergence, scale 0 to 100 (0 no effect, 100 complete control), read-out: Foxtail, Giant plant response rating
[18] = pre-emergence, Preemergence, scale 0 to 100, 0 no effect, 100 complete control, read-out: Plant response rating, Foxtail, Giant
[19] = pre-emergence, Preemergence, scale 0 to 100, read-out: Plant response rating, Foxtail, Giant
[20] = post-emergence, Postemergence, scale 0 to 100 (0 no effect, 100 complete control), read-out: Goosegrass plant response rating
[21] = pre-emergence, Preemergence, scale 0 to 100, 0 no effect, 100 complete control, read-out: Plant response rating, Goosegrass
[22] = pre-emergence, Preemergence, scale 0 to 100, read-out: Plant response rating, Goosegrass

## COC(=O)c1nc(C2CC2)nc(N)c1Br [Compound 2, methyl 6-amino-5-bromo-2-cyclopropyl-4-pyrimidinecarboxylate]
[1]; [8]
  pest or weed control at 125 g/ha: 65%
  pest or weed control at 62 g/ha: 55%
[1]; post-emergence, Postemergence, read-out: Plant response rating (scale of 0 to 100), Surinam Grass
  pest or weed control at 31 g/ha: 0%
[1]; post-emergence, Postemergence, scale 0 to 100, read-out: Plant response rating, Surinam Grass
  pest or weed control at 250 g/ha: 70%
[1]; [9]
  pest or weed control at 31 g/ha: 0%
  pest or weed control at 62 g/ha: 0%
[1]; [10]
  pest or weed control at 125 g/ha: 0%
  pest or weed control at 250 g/ha: 0%
[2]; post-emergence, Postemergence, read-out: Plant response rating (scale of 0 to 100), Bermudagrass
  pest or weed control at 31 g/ha: 15%
[2]; post-emergence, Postemergence, scale 0 to 100 (0 no effect, 100 complete control), read-out: Bermudagrass plant response rating
  pest or weed control at 62 g/ha: 60%
[2]; [11]
  pest or weed control at 125 g/ha: 70%
  pest or weed control at 250 g/ha: 80%
[2]; [12]
  pest or weed control at 31 g/ha: 0%
  pest or weed control at 62 g/ha: 0%
[2]; [13]
  pest or weed control at 125 g/ha: 0%
  pest or weed control at 250 g/ha: 0%
[3]; post-emergence, Postemergence, read-out: Plant response rating (scale of 0 to 100), Ragweed
  pest or weed control at 31 g/ha: 65%
[3]; [14]
  pest or weed control at 62 g/ha: 85%
  pest or weed control at 125 g/ha: 90%
[3]; post-emergence, Postemergence, scale 0 to 100, read-out: Plant response rating, Ragweed
  pest or weed control at 250 g/ha: 95%
[3]; [15]
  pest or weed control at 31 g/ha: 0%
  pest or weed control at 62 g/ha: 0%
[3]; [16]
  pest or weed control at 125 g/ha: 0%
  pest or weed control at 250 g/ha: 0%
[4]; 31 g ai/ha, scale 0 to 100, 0 no effect, 100 complete control
  pest or weed control at 31 g/ha: 0%
[4]; 62 g ai/ha, scale 0 to 100, 0 no effect, 100 complete control
  pest or weed control at 62 g/ha: 20%
[4]; 125 g ai/ha, scale 0 to 100
  pest or weed control at 125 g/ha: 100%
[4]; 250 g ai/ha, scale 0 to 100
  pest or weed control at 250 g/ha: 100%
[5]; [17]
  pest or weed control at 125 g/ha: 65%
  pest or weed control at 62 g/ha: 35%
[5]; post-emergence, Postemergence, read-out: Plant response rating (scale of 0 to 100), Foxtail, Giant
  pest or weed control at 31 g/ha: 0%
[5]; post-emergence, Postemergence, scale 0 to 100, read-out: Plant response rating, Foxtail, Giant
  pest or weed control at 250 g/ha: 70%
[5]; [18]
  pest or weed control at 31 g/ha: 0%
  pest or weed control at 62 g/ha: 0%
[5]; [19]
  pest or weed control at 125 g/ha: 0%
  pest or weed control at 250 g/ha: 30%
[6]; post-emergence, Postemergence, read-out: Plant response rating (scale of 0 to 100), Goosegrass
  pest or weed control at 31 g/ha: 0%
[6]; [20]
  pest or weed control at 62 g/ha: 0%
  pest or weed control at 125 g/ha: 0%
[6]; post-emergence, Postemergence, scale 0 to 100, read-out: Plant response rating, Goosegrass
  pest or weed control at 250 g/ha: 45%
[6]; [21]
  pest or weed control at 31 g/ha: 0%
  pest or weed control at 62 g/ha: 0%
[6]; [22]
  pest or weed control at 125 g/ha: 0%
  pest or weed control at 250 g/ha: 60%
[7]; 31 g ai/ha, read-out: Plant response rating (scale of 0 to 100), Lambsquarters
  pest or weed control at 31 g/ha: 100%
[7]; 62 g ai/ha, scale 0 to 100 (0 no effect, 100 complete control), read-out: Lambsquarters plant response rating
  pest or weed control at 62 g/ha: 100%
